Test results from patent publication US9404080B2, “Human taste cells capable of continuous proliferation” (B.R.A.I.N. BIOTECHNOLOGY RESEARCH AND INFORMATION NETWORK AG, priority 2012, dated 2016).
Entries after “also recorded” stand apart in the source; their conditions may differ.

How the values were obtained:
[1] = system: human taste cells BR-HTC8; assay: Fluo-4 fluorescent calcium imaging assay in BR-HTC8; assay type: cell-based; conditions: for change of Fluo4-fluorescence / intracellular calcium on addition of the test molecule: BR-HTC8, increasing concentrations in KH-buffer with Ca2+; for Fluo-4 assay BR-HTC8: dose-dependent increase in intracellular calcium on stimulation with the cognate bitter molecule of the TAS2R named in the row; as to Fluo-4 assay BR-HTC8: key: + indicates that the analysis was successful and that the mRNA was detected by RT-PCR or that stimulation of human taste cells with the respective taste molecule resulted in a dose-dependent increase in intracellular calcium or decrease in cellular membrane potential
Method: Before the assay, cells are maintained in HTC medium for at least 48 hours as described in Example 1. Cells are then trypsinized with accutase (e.g. PAA, L11-007) or TrypLE (e.g. Gibco, 12563) and seeded into poly-D-lysine coated 96-well assay plates (e.g. Corning) at a density of 15,000 cells/well in 100 μl HTC medium.
After 24 hours, the cells (still in 100 μl medium) are stained by addition of 100 μl of Fluo-4 staining solution, which consists of KH buffer (10 mM HEPES pH7.4 containing 118 mM NaCl, 4.7 mM KCl, 4.2 mM NaHCO3, 1.2 mM KH2PO4, 1.2 mM MgSO4, 1.3 mM CaCl2) containing 4 μM Fluo-4 (Molecular Probes) and incubation for 1 hour at 37° C. Final Fluo-4 concentration in the staining solution/medium mixture is 2 μM. Staining solution is then replaced by 80 μl KH-buffer per well and plates are transferred into a fluorescence microplate reader to monitor changes in Ca^2+-dependent fluorescence (excitation 488 nm, emission 530 nm) after the addition of 20 μl KH-buffer supplemented with the test molecule under investigation. The test molecule was added 16 seconds after starting the scan and baseline recording, mixed twice, and then recording continued for additional 44 seconds. Data points of a total of 18 reads were collected. Data analysis/Data recording—Calcium mobilization was measured as the change of peak fluorescence (ΔF) over the baseline level (F). Data were expressed as the mean S.E. of the ΔF/F value of replicated independent samples. Data analysis was done with software provided by the manufacturer of the microplate reader (e.g. Molecular Devices).
(§1) To test, whether stimulation of human taste cells with these taste molecules leads to changes in intracellular calcium the Fluo-4 fluorescent calcium imaging assay was performed as described above. Non-taste cells including HEK293 cells and non-lingual, proliferating primary cells isolated from the oral cavity served as a control and were treated equally throughout the procedure. Changes in Ca^2+-dependent Fluo-4 fluorescence were recorded on a Molecular Devices Fluorescence microplate reader. Measurement was started by addition of increasing concentrations of the taste molecules in KH-buffer to the cells. KH-buffer served as negative control and KH-buffer containing 1 μM ionomycin served as a positive control. […] Calcium signals for each test molecule are depicted as Relative Fluorescence Units (RFU), which means that calcium mobilization in response to taste molecules was calculated dF/F0, with dF is (peak fluorescence F1−baseline fluorescence F0). […] Data were obtained from several independent experiments and performed in triplicates.
In order to perform to the Fluo-4 fluorescent calcium imaging experiment in the absence of extracellular Ca^2+ the procedure was conducted as described above, however, the KH-buffer was prepared without addition of Ca^2+. Measurement was started by addition of increasing concentrations of the taste molecules in KH-buffer without Ca^2+ to the cells. KH-buffer without Ca^2+ served as negative control and KH-buffer without Ca^2+ containing 1 μM ionomycin served as a positive control.
To test, whether stimulation of human taste cells with oxytocin leads to changes in intracellular calcium the Fluo-4 fluorescent calcium imaging assay was performed as described above in Example 5. Briefly, the human taste cells were seeded in 96-well plates and stained with 2 μM of the calcium-sensitive fluorescence dye Fluo4 in HTC/KH buffer medium for one hour at 37° C. with subsequent replacement of the staining solution with KH-buffer. Non-taste cells including HEK293 cells and non-lingual, proliferating primary cells isolated from the oral cavity served as a control and were treated equally throughout the procedure. Changes in Ca^2+-dependent Fluo-4 fluorescence were recorded on a Molecular Devices Fluorescence microplate reader.

[2] = system: human taste cells BR-HTC8; assay: FLIPR fluorescent membrane potential (FMP) imaging assay in BR-HTC8; assay type: cell-based; conditions: for change of cellular membrane potential (FLIPR FMP dye fluorescence) on addition of the test molecule: BR-HTC8, increasing concentrations in KH-buffer; for FMP assay BR-HTC8: dose-dependent decrease in cellular membrane potential on stimulation with the cognate bitter molecule of the TAS2R; as to FMP assay BR-HTC8: key: + indicates that the analysis was successful and that the mRNA was detected by RT-PCR or that stimulation of human taste cells with the respective taste molecule resulted in a dose-dependent increase in intracellular calcium or decrease in cellular membrane potential
Method: This cell depolarization was measured by using voltage-sensitive dyes including FLIPR fluorescent membrane potential (FMP) dye (Molecular Devices R8123). Before the assay, cells were maintained in HTC medium for at least 48 hours as described above in Example 1. Cells were then trypsinized with accutase (e.g. PAA, L11-007) or TrypLE (e.g. Gibco, 12563) and seeded into poly-D-lysine coated 96-well assay plates (Corning) at a density of 15,000 cells/well in […].
After 24 hours, medium was removed and the cells are washed once with 100 μl KH buffer (10 mM HEPES pH7.4 containing 118 mM NaCl, 4.7 mM KCl, 4.2 mM NaHCO3, 1.2 mM KH2PO4, 1.2 mM MgSO4, 1.3 mM CaCl2) and then stained with 200 μl KH buffer containing FLIPR FMP dye according instructions of the manufacturer […] and incubation for 2 hours at 37° C. The plates were then transferred into a fluorescence microplate reader to monitor changes in membrane potential-dependent fluorescence (excitation 530 nm, emission 565 nm) after the addition of 50 μl KH-buffer supplemented with the test molecule under investigation. The test molecule was added 16 seconds after starting the scan and baseline recording, mixed twice, and then recording continued for additional 74 seconds. Data points of a total of 35 reads were collected.
Data analysis/Data recording—Changes of the membrane potential was measured as the change of peak fluorescence (ΔF) over the baseline level (F). Data were expressed as the mean S.E. of the ΔF/F value of replicated independent samples. Data analysis was done with software provided by the manufacturer of the microplate reader (Molecular Devices).
(§2) To test, whether stimulation of human taste cells with taste molecules leads to changes in cellular membrane potential the FLIPR fluorescent membrane potential assay was performed as described above. Non-taste cells including HEK293 cells and non-lingual, proliferating primary cells isolated from the oral cavity served as a control and were treated equally throughout the procedure. Changes in membrane potential were recorded on a Molecular Devices Fluorescence microplate reader. Measurement was started by addition of increasing concentrations of the taste molecules in KH-buffer to the cells. KH-buffer served as negative control and KH-buffer containing 4 μM FCCP (e.g. Sigma, C2920) served as a positive control. […] Data were obtained from several independent experiments and performed in triplicates.
as §2, with “This cell depolarization can be measured by using voltage-sensitive dyes including FLIPR fluorescent membrane potential (FMP) dye (Molecular Devices R8123) as described above in Example 6. To” for “To”, “oxytocin” for “taste molecules”, “oxytocin” for “the taste molecules”

[3] = system: Non-taste cells including HEK293 cells, Cal33 cells, and non-lingual, proliferating primary cells isolated from the oral cavity; assay: Fluo-4 fluorescent calcium imaging assay in non-taste control cells; assay type: cell-based, human
Method: Briefly, human taste cells were seeded in 96-well plates and stained with Fluo4-AM. Non-taste cells including HEK293 cells, Cal33 cells, and non-lingual, proliferating primary cells isolated from the oral cavity served as a control. Changes in Ca^2+-dependent Fluo-4 fluorescence were recorded on a Molecular Devices fluorescence microplate reader. Measurement was started by addition of increasing concentrations of the taste molecules. […] Calcium signals for each test molecule are depicted as relative fluorescence units (RFU).
as §1

BR-HTC38 cells = assay: Fluo-4 fluorescent calcium imaging assay in TAS2R38-transduced BR-HTC38; assay type: cell-based, human; conditions: BR-HTC38 (TAS2R38 expressed) vs BR-HTC8
Method: Changes in Ca^2+-dependent Fluo-4 fluorescence were recorded on a Molecular Devices fluorescence microplate reader. Measurement was started by addition of increasing concentrations of the taste molecules in KH-buffer to the cells. KH-buffer served as negative control and KH-buffer containing 1 μM ionomycin served as a positive control. […] Calcium signals for each test molecule are depicted as Relative Fluorescence Units (RFU), which means that calcium mobilization in response to taste molecules was calculated dF/F0, with dF is (peak fluorescence F1−baseline fluorescence F0). […] Data were obtained from several independent experiments and performed in triplicates.

Nc1ncnc2c1ncn2[C@@H]1O[C@H](COP(=O)(O)OP(=O)(O)OP(=O)(O)O)[C@@H](O)[C@H]1O [ATP, adenosine triphosphate]
change of Fluo4-fluorescence / intracellular calcium on addition of the test molecule [1]: increase in intracellular calcium
change of cellular membrane potential (FLIPR FMP dye fluorescence) on addition of the test molecule [2]: dose-dependent decrease in cellular membrane potential; also recorded: dose-dependent decrease of membrane potential

CC1=CC(=O)[N-]S(=O)(=O)O1.[K+] [Acesulfame K]
change of Fluo4-fluorescence / intracellular calcium on addition of the test molecule [1]: do not trigger an increase in intracellular calcium
Fluo-4 assay BR-HTC8 [1]: +
change of cellular membrane potential (FLIPR FMP dye fluorescence) on addition of the test molecule [2]: decrease in cellular membrane potential
FMP assay BR-HTC8 [2]: +

COc1cccc2c1cc([N+](=O)[O-])c1c(C(=O)O)cc3c(c12)OCO3 [Aristolochic acid]
change of Fluo4-fluorescence / intracellular calcium on addition of the test molecule [1]: dose-dependent increase of Fluo4-fluorescence
Fluo-4 assay BR-HTC8 [1]: +
change of cellular membrane potential (FLIPR FMP dye fluorescence) on addition of the test molecule [2]: dose-dependent decrease in cellular membrane potential; also recorded: dose-dependent decrease of membrane potential
FMP assay BR-HTC8 [2]: +
increase of Fluo4-fluorescence in control cells [3]: not in control cells

O=C(N[C@H](CO)[C@H](O)c1ccc([N+](=O)[O-])cc1)C(Cl)Cl [Chloramphenicole]
Fluo-4 assay BR-HTC8 [1]: +

CCN(CC)CCCC(C)Nc1ccnc2cc(Cl)ccc12 (centres unmarked) [Chloroquine]
FMP assay BR-HTC8 [2]: +

CC[N+](CC)(CC(=O)Nc1c(C)cccc1C)Cc1ccccc1.O=C([O-])c1ccccc1 [Denatonium benzoat]
Fluo-4 assay BR-HTC8 [1]: +

O=C(O[C@@H]1Cc2c(O)cc(O)cc2O[C@@H]1c1cc(O)c(O)c(O)c1)c1cc(O)c(O)c(O)c1 [EGCG]
Fluo-4 assay BR-HTC8 [1]: +

O=S(=O)(NCCNC/C=C/c1ccc(Br)cc1)c1cccc2cnccc12 [H89]
calcium response to saccharin in the presence of H89 ([1]; 0.5 μM H89, BR-HTC8): not reduced
calcium signalling on stimulation with salicin in the presence of H89 ([1]; 0.5 μM H89, BR-HTC8): slightly inhibited

COc1cc(OC2CCN(C(C)=O)CC2)ccc1C(=O)N1CCC(N2C(=O)OCc3ccccc32)CC1 [L371,257]
calcium signalling on stimulation with oxytocin in the presence of L371,257 ([1]; 40 nM L371,257, BR-HTC8): inhibited

CC1COc2c(N3CCN(C)CC3)c(F)cc3c(=O)c(C(=O)O)cn1c23 (centres unmarked) [Ofloxacine]
Fluo-4 assay BR-HTC8 [1]: +

Cc1ccccc1C(OCCN(C)C)c1ccccc1 (centres unmarked) [Orphenadrine]
Fluo-4 assay BR-HTC8 [1]: +

NC(=S)Nc1ccccc1 [PTC, phenylthiocarbamide]
change of Fluo4-fluorescence / intracellular calcium on addition of the test molecule [1]: dose-dependent increase of Fluo4-fluorescence
Fluo-4 assay BR-HTC8 [1]: +
FMP assay BR-HTC8 [2]: +
dose-dependent Fluo-4 calcium response in BR-HTC38 compared with parental BR-HTC8 (BR-HTC38 cells): enhanced

COc1ccc2c(c1)CC[C@@H]1[C@@H]2CC[C@]2(C)[C@@H](NCCCCCCN3C(=O)C=CC3=O)CC[C@@H]12 [U73122]
calcium response to saccharin in the presence of U73122 ([1]; 5 μM U73122, BR-HTC8): not reduced
calcium signalling on stimulation with salicin in the presence of U73122 ([1]; 5 μM U73122, BR-HTC8): inhibited

CCCCC/C=C\C/C=C\CCCCCCCC(=O)O [linoleic acid]
change of Fluo4-fluorescence / intracellular calcium on addition of the test molecule [1]: dose-dependent increase of Fluo4-fluorescence
increase of Fluo4-fluorescence in control cells [3]: not in control cells

CCCCCCCC/C=C\CCCCCCCC(=O)O [oleic acid]
change of Fluo4-fluorescence / intracellular calcium on addition of the test molecule [1]: dose-dependent increase of Fluo4-fluorescence
increase of Fluo4-fluorescence in control cells [3]: not in control cells

CC[C@H](C)[C@@H]1NC(=O)[C@H](Cc2ccc(O)cc2)NC(=O)[C@@H](N)CSSC[C@@H](C(=O)N2CCC[C@H]2C(=O)N[C@@H](CC(C)C)C(=O)NCC(N)=O)NC(=O)[C@H](CC(N)=O)NC(=O)[C@H](CCC(N)=O)NC1=O [oxytocin]
change of Fluo4-fluorescence / intracellular calcium on addition of the test molecule [1]: dose-dependent increase of Fluo4-fluorescence
change of cellular membrane potential (FLIPR FMP dye fluorescence) on addition of the test molecule [2]: dose-dependent decrease of membrane potential
